# From US5849259A, “3-,8-substituted deuteroporphyrin derivatives, pharmaceutical agents containing the latter and process for their production” (priority 1992, dated 1998)
# Tests used:
# HT29 colon cancer = test: Signal intensity change in tissues of tumor-bearing (HT29 colon cancer) nude mice, Bruker Biospec 2.35 Tesla, MSSE; assay type: in vivo, nude mice (Balb/c nu/nu); details: 0.05 mmol/kg i.v.; for enhancement, HT29 / enhancement, Kidneys / enhancement, Liver / enhancement, Muscle: time 0 = 100
# Procedure: On a Bruker Biospec nuclear spin tomograph (2.35 Tesla), the al intensity change in various tissues of tumor-bearing (HT29 colon cancer) nude mice (Balb/c nu/nu) was studied after i.v administration of 0.05 mmol/kg of the compound according to example 1c (10 mmol/l, pH 7.2; 37° C. in bidistilled water). The measurement takes place with a multi slice single echo sequence (MSSE). Imaging parameters: TR: 400 ms, TE: 30 ms, layer thickness: 4 mm, number of averages: 4/slice, matrix 256^2. […]
# [1] = tested on: HT29 and WiDr colon cancer; test: Signal intensity change in tissues of tumor-bearing (HT29 and WiDr colon cancer) nude mice, example 1c, 0.5 mmol/kg; assay type: in vivo, nude mice (Balb/c nu/nu); details: 0.5 mmol/kg i.v.
# Procedure: d) On a Bruker Biospec nuclear spin tomograph (2.35 Tesla), the signal intensity change in various tissues of tumor-bearing (HT29 and WiDr colon cancer) nude mice (Balb/c nu/nu) was studied after i.v. administration of 0.5 mmol/kg of the compound of example 1c (10 mmol/l, pH 7.2; 37° C. in bidistilled water). The measurement takes place with a multi slice single echo sequence (MSSE). Imaging parameters: TR: 400 ms, TE: 30 ms, layer thickness: 4 mm, number of averages: 4/slice, matrix 256^2. After a preliminary image, 0.5 mmol/kg of the substance was administered and the signal intensity change studied up to 180 minutes p.i.
# VX-2 carcinoma = test: Signal intensity in tissues of tumor-bearing rabbit (VX-2 carcinoma), Siemens Magneton 1.5 Tesla; assay type: in vivo
# From the text: On a Siemens Magneton^(R) (1.5 Tesla; 64 MHz), the signal intensity in various tissues of a tumor-bearing rabbit [hare rabbit, Wulf, female, approximately 4 kg body weight (n=3), tumor of VX-2 carcinoma implanted intramuscularly about 3 weeks before the beginning of the test) was studied after the i.v. administration of […] body weight (corresponding to 0.05 mmol/kg of gadolinium) of the compound according to the invention produced according to Example 1c. The measurement took place with the following imaging parameters: T1 -weighted spin echo sequence: TR : 350 ms, TE : 15 ms, layer orientation: coronary, layer thickness 3 mm, number of averages: 4 per layer, field of view: 150 mm, matrix 256^2, 4-6 layers 1 echo per imaging sequence.
# The relative signal intensities in various tissues are represented in FIG. 4. The output signal intensity (=SIprecontrast) in the various tissues was set equal to 1 in each case.
# [2] = 0.0025 mmol/kg i.v. (corresponding to 0.05 mmol/kg of gadolinium)
substance,measurement,setting,value
"N,N'-Bis[9-carboxylato-2,5,8-tris(carboxylatomethyl)-2,5,8-triazanonyl-carbamoyl]-mesoporphyrin-IX-13,17-diamide, digadolinium complex, disodium salt [Example 1c]","signal intensity change, tumor and muscle",HT29 colon cancer,only a slight change
same,"enhancement, HT29",HT29 colon cancer; 5 min,116 ± 19
same,"enhancement, Kidneys",HT29 colon cancer; 5 min,185 ± 34
same,"enhancement, Liver",HT29 colon cancer; 5 min,122 ± 31
same,"enhancement, Muscle",HT29 colon cancer; 5 min,119 ± 8
same,"signal intensity change, liver tissue",HT29 colon cancer; 5 minutes p.i.,marked signal intensity increase
same,"enhancement, HT29",HT29 colon cancer; 60 min,128 ± 21
same,"enhancement, Kidneys",HT29 colon cancer; 60 min,240 ± 26
same,"enhancement, Liver",HT29 colon cancer; 60 min,164 ± 22
same,"enhancement, Muscle",HT29 colon cancer; 60 min,129 ± 7
same,"enhancement, HT29",HT29 colon cancer; 90 min,148 ± 22
same,"enhancement, Kidneys",HT29 colon cancer; 90 min,248 ± 18
same,"enhancement, Liver",HT29 colon cancer; 90 min,202 ± 37
same,"enhancement, Muscle",HT29 colon cancer; 90 min,143 ± 21
same,"enhancement, HT29",HT29 colon cancer; 120 min,155 ± 30
same,"enhancement, Kidneys",HT29 colon cancer; 120 min,246 ± 6
same,"enhancement, Liver",HT29 colon cancer; 120 min,194 ± 33
same,"enhancement, Muscle",HT29 colon cancer; 120 min,147 ± 17
same,"enhancement, HT29",HT29 colon cancer; 150 min,167 ± 29
same,"enhancement, Kidneys",HT29 colon cancer; 150 min,225 ± 12
same,"enhancement, Liver",HT29 colon cancer; 150 min,197 ± 17
same,"enhancement, Muscle",HT29 colon cancer; 150 min,146 ± 8
same,"enhancement, HT29",HT29 colon cancer; 180 min,161 ± 22
same,"enhancement, Kidneys",HT29 colon cancer; 180 min,212 ± 16
same,"enhancement, Liver",HT29 colon cancer; 180 min,212 ± 9
same,"enhancement, Muscle",HT29 colon cancer; 180 min,157 ± 8
same,"signal intensity change, liver tissue and both tumors",[1]; 5 minutes p.i.,marked signal intensity increase
same,"signal intensity change, muscle",[1]; reference tissue,smaller signal increase
same,"enhancement, implanted tumor",VX-2 carcinoma; [2],good long acting enhancement
same,"enhancement, majority of the lymph nodes on the tumor-bearing side",VX-2 carcinoma; [2],good long acting enhancement
same,diagnosis of metastasis of the lymph nodes,VX-2 carcinoma; confirmed by histological study,a metastasis attack of the lymph nodes could therefore be diagnosed
